Test results reported in patent US20210162028A1, “Methods for Inducing Intermittent Fasting and Modulating Autophagy” (The Hong Kong Polytechnic University, priority 2019, published 2021).
Entries after “also recorded” stand apart in the source; their conditions may differ.

What was measured:
Format in all cases: in vivo, mouse
[1] = Insulin tolerance test (ITT); conditions: DIO C57BL/6J male mice on HFD, after 6 weeks
From the text: In terms of reversing insulin resistance on pre-existing obese mice, insulin tolerance test (ITT) was employed (FIG. 59).
In terms of reversing insulin resistance on pre-existing obese mice, insulin tolerance test (ITT) was employed (FIG. 68A).

[2] = Fat pad and organ mass at end of treatment; conditions: DIO C57BL/6J male mice on HFD
[3] = Glucose tolerance test (GTT); conditions: DIO C57BL/6J male mice on HFD, after 7 weeks
[4] = Hepatic steatosis (oil Red O / H&E staining, liver triglyceride); conditions: DIO C57BL/6J male mice on HFD, 11 weeks after treatment
[5] = tested on: hepatocyte; test: Transmission electron microscopy of liver (hepatocytes); conditions: DIO C57BL/6J male mice on HFD, 3 weeks, Day 3
From the text: FIG. 47 illustrates the liver examined by transmission electron microscopy at Day 1, Day 3, Day 5 and Day 7 of the 7-day intermittent after N-ABD094-rhArg injection.
The presence of autophagosome in liver after treatment for 3 weeks were examined by TEM (FIGS. 62, 63 and 64).
The presence of autophagosome in liver after treatment for 3 weeks were examined by transmission electron microscopy (FIGS. 71 and 72).

[6] = Daily food intake / 7-day intermittent fasting cycle in mice; conditions: DIO C57BL/6J male mice on HFD
From the text: One of the most noticeable effects of intermittent fasting is reduction of bodyweight. […] Specifically, C57BL/6J, which is the most commonly used mouse strain for polygenic obesity model, was used in the study. It is well-reported that C57BL/6J male mice feeding on a high-fat diet will have prominent weight gain, become obese and develop hyperinsulinemia, hyperglycemia, impaired glucose tolerance and insulin resistance [Gallou-Kabani et al., 2007, Obesity 15(8):1996-2005]. Obesity was induced in C57BL/6J male mice via feeding ad libitum a high-fat diet containing 60 kcal % fat (HFD; Research Diets, D12492) for 12-14 weeks starting from 5-week old. These mice are referred as diet-induced obese (DIO) mice. DIO mice were stratified according to bodyweight into 2 groups. […] Both groups of mice continued to feed ad libitum on the HFD throughout the treatment period. One group of age-matched C57BL/6J male mice feeding ad libitum on an ordinary rodent chow diet (CD; LabDiet, 50IF/6F) and injected with vehicle served as the lean control [CD (vehicle) group]. Food intake and bodyweight of mice were measured daily. […] DIO mice were injected with rhArg on Day 0, which was Day 7 of the previous cycle. Similarly, Day 7 of the cycle shown in FIG. 1B was Day 0 of the next cycle. […] Bodyweight gain is one of the biomarkers related to aging.
C57BL/6J male mice were fed a high-fat diet from 5-week old for 12 weeks. They were then stratified into 3 groups according to their bodyweight and individually caged: (i) one group of mice received i.p. injection of 600 U N-ABD094-rhArg (SEQ ID NO: 50) once a week [HFD (rhArg) group] and was fed ad libitum the HFD for 5 weeks; (ii) one group of mice received i.p. injection of saline once a week, and was fed a predetermined amount of HFD on each day to artificially create a 7-day intermittent fasting cycle that mimics the pattern of food intake of mice administered once a week with rhArg [HFD (artificial IF) group)]; (iii) one group of mice was injected with saline once a week and was fed ad libitum the HFD [HFD (vehicle) group].

[7] = Bodyweight of treated mice; conditions: DIO C57BL/6J male mice on HFD
[8] = rhArg weekly and/or 0.33 mg/day RA
[9] = rhArg once a week alone or 0.33 mg RA daily alone
[10] = rhArg weekly and/or 0.33 mg RA daily
[11] = 300 U/week rhArg and/or 300 mg/kg metformin
[12] = 300 U rhArg once a week and/or 300 mg/kg metformin daily

CC1=C(/C=C/C(C)=C/C=C/C(C)=C/C(=O)O)C(C)(C)CCC1 [RA, all-trans retinoic acid, reference compound]
Insulin sensitivity in ITT [1, 8]: marginal effect on improving insulin sensitivity but not reach statistical significant
Mass of organs including liver, pancreas and BAT [2, 9]: can already reduce the mass of most organs
Visceral and subcutaneous fat mass ([2]; rhArg once a week and/or 0.33 mg RA daily): did not reduce body fat
Glucose tolerance in GTT [3, 8]: cannot relieve glucose intolerance
Lipid in liver (H&E staining) ([4]; rhArg and/or RA): significant effect on diminishing lipid in liver
TEM of liver: autophagosomes [5, 10]: autophagosome was rarely seen; also recorded: no autophagosome is observed
TEM of liver: lipid droplets [5, 10]: significant decrease in lipid droplet size
Pattern of food intake (intermittent fasting cycle) ([6]; 200 U rhArg i.p. once a week and/or 0.33 mg RA daily): stable
Total food intake per week, less than HFD (vehicle) group ([6]; 200 U rhArg i.p. once a week and/or 0.33 mg RA daily by gastric feeding, 10 weeks): slight, but insignificant decrease
Change in bodyweight under single treatment [7, 9]: could only prevent further gain in bodyweight, but did not result in weight loss; also recorded: stable body weight without further increase

CN(C)C(=N)N=C(N)N [metformin, reference compound]
Insulin sensitivity in ITT [1, 11]: cannot relieve insulin resistant
Mass of organs including liver, kidney and BAT [2, 12]: cannot reduce the mass of most organs
Visceral and subcutaneous fat mass [2, 12]: did not reduce body fat
Glucose tolerance in GTT [3, 11]: cannot relieve glucose intolerance
Lipid in liver (H&E staining) ([4]; rhArg and/or metformin): slight effect of diminishing lipid in liver
TEM of liver: autophagosomes [5, 11]: no autophagosome is observed; also recorded: autophagosome was rarely seen
TEM of liver: lipid droplets [5, 11]: significant decrease in lipid droplet size
Pattern of food intake (intermittent fasting cycle) ([6]; 300 U rhArg i.p. once a week and/or 300 mg/kg metformin daily): stable
Total food intake per week, less than HFD (vehicle) group ([6]; 300 U rhArg i.p. once a week and/or 300 mg/kg metformin daily by gastric feeding, 9 weeks): 13%
Change in bodyweight under single treatment ([7]; 300 U rhArg once a week alone or 300 mg/kg metformin daily alone): stable body weight without further increase in body mass
Change in bodyweight under single treatment ([7]; 300 U rhArg once a week alone or 300 mg/kg metformin daily alone, listed as Met): could only prevent further gain in bodyweight, but did not result in weight loss
